Experimental data published in patent publication US6043283A, “Tyramine compounds and their neuronal effects” (priority 1997, dated 2000).
Entries after “also recorded” stand apart in the source; their conditions may differ. Read-outs that look alike come from different tables or passages of the source.

Columns and labels:
[1] = tested on: NMDA receptor; test: whole cell current elicited by NMDA in Xenopus oocytes injected with NMDA R1 and R2 subunit cRNAs; assay type: cell-based; settings: FIG. 34
Source text: FIG. 34 is a graph shorting the % maximal current peak elicited by NMDA, octopamine and tyramine compounds in the presence of a given NMDA concentration. […].
The precise mechanism of NTox that leads to the destruction of neurons is only partially characterized. Based upon extensive testing with receptor antagonists, it has been discovered that two classes of neurotransmitter receptors are involved--the n-methyl D-aspartate (NMDA) class of […] receptors and the Muscarinic (M receptors) class of cholinergic receptors. […] […]. Further study to determine if tyramine compounds act upon the NMDA receptor itself involved expression of the NMDA receptor complex in Xenopus oocytes and measurement of ionic fluxes across the oocyte membrane that are elicited by NMDA. […] […]. […] Thus, tyramine compounds appear to have several actions, one of which is upon the NMDA receptor.

[2] = tested on: AMAA; test: protection of neurons against AMAA; assay type: cell-based; settings: FIG. 32
Source text: (§1) FIG. 32 is a graph showing the specificity of tyramine compounds to NTox. […]

[3] = tested on: NTox; test: protection of neurons against isolated NTox applied directly; assay type: cell-based
Source text: FIG. 32 is a graph showing the specificity of tyramine compounds to NTox. […].
Initial studies to characterize the neuroprotective effect of tyramine compounds employed microglia-neuron co-culture assays in the presence of Aβ or isolated senile plaques. Inhibition of neuron killing in […]--inhibition of microglial activation by Aβ or plaques; inhibition of NTox production and release by microglia; or inhibition of action of NTox upon neurons. […] Effective doses in the low nmolar range show the tyramine compounds to be very potent agents compared with low μmolar range of other neuroprotective drugs under development for neurological disorders.

[4] = tested on: human microglia stimulated with S5; assay type: cell-based;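 also: drugs applied at 10 µM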
[5] = tested on: quinolinic acid (QUIN); test: protection of neurons against quinolinic acid; assay type: cell-based; settings: QUIN (100 μM in FIG. 13)
Source text: as §1

[6] = tested on: Aβ1-42-stimulated microglia; assay type: cell-based, rat
How it was run: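 E18 rat hippocampal cultures, microglia depleted with saporin–ac-LDL (10 μg/ml, 12 h) on day 14, then given test substances at 10μM with or without exogenous microglia (100,000 cells) for 72 h. Neurons immunostained (NF plus MAP-2) and nuclei counted by fluorescence microscopy; survival expressed as % of parallel untreated controls.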

[7] = tested on: rat microglia; test: binding of Aβ-coupled microspheres to microglia; settings: 4 hours at 37° C. (72 h in FIG. 23)
[8] = tested on: human microglia; test: induction of neuron-killing human microglia; assay type: cell-based; settings: 1 μmole/liter synthetic peptides
[9] = tested on: rat microglia; assay type: binding; settings: 6 hours, 37° C.
Procedure: Synthetic Aβ peptides were linked to Sepharose beads (Pharmacia) in coupling buffer (0.1 M NaHCO3, 0.5 M NaCl, pH 8.3) containing 20% DMSO. This solution was combined with an appropriate volume of CNBr-activated Sepharose 4B (10 mg protein per ml of bead; Pharmacia protocol) and mixed overnight on a platform mixer at room temperature. Remaining active groups on the beads were blocked by 1.0 M glycine and excess uncoupled peptides removed from this bead-peptide complex by washing with three cycles of alternating pH (0.1 M acetate buffer, pH 4.0, followed by 0.1 M Tris-HCL buffer, pH 8.0, each buffer containing 0.5 M NaCl). Coupled beads (10^4 per ml) were placed in 35 mm culture dishes covered with 250,000 adhering microglia at 37° C. in 1.5 ml N2 medium in accordance with the procedure of Giulian et al., 1995a. The numbers of microglia which detached from the plate and bound to coupled beads were determined at the end of a 6 hour incubation period by inverted phase microscopy with 100 beads scored from each of three sister cultures. Glycine and bovine serum albumin (BSA) coupled beads were used as controls.

[10] = tested on: rat microglia / hippocampal neurons; settings: for neuron loss with conditioned media from microglia: 10% vol/vol conditioned media, microglia with 1 μmole/l peptide; for induction of neurotoxic microglia / neuron killing: rat microglia, mostly 1 μmole/l; for killing of neurons: rat, hippocampal neurons, 72 h, 1 µM
[11] = tested on: rat microglia; test: microglial morphology / reactivity; assay type: cell-based
Procedure: Equal amounts of plaque protein (normalized to total amine content at 400 μmoles/l) were added to neuronal cultures in the presence (100,000 cells per culture) or absence of rat microglia. […] The chromatogram was developed with 80% glass distilled formic acid at a flow rate of 0.3 ml per minute and monitored at 280 nm.
Bright field photomicrographs of rat microglia cultures exposed to peak S1 (FIG. 20A) or peak S5 (FIG. 20B) and immuno-stained for the presence of Aβ.
FIGS. 22A-F depict cellular responses upon exposure to synthetic Aβ peptides. […] Bar=25 microns.

[12] = tested on: NTox released by Aβ1-42-stimulated microglia (neuron killing); test: cells; assay type: cell-based, rat; settings: 72 hours; FIG. 30 experiment
[13] = tested on: human microglia; test: nitrite/nitrate production, human microglia; assay type: cell-based
Procedure: Nitrites and nitrates, stable byproducts of nitric oxide synthetase (NOS) served as markers for nitric oxide (NO) synthesis (Ignarro, 1990). […]; for 24 to 72 hours incubated in the presence of neuritic/core plaques or Aβ peptides) were measured by the Griess method set forth by Beckman et al., 1990 against a standard curve ranging from 0.1 to 50.0 μM nitrate.

[14] = assay type: physicochemical; settings: chemically defined culture media, 37° C.; Table 2
Source text: Solubility of peptides is described for chemicallydefined culture media a […]

[15] = tested on: reactive microglia in rat neocortex; test: brain inflammatory response after infusion into neocortex of adult rat; assay type: in vivo; settings: 0.5 nmoles Aβ1-42, co-infusion of 1.0 nmole peptide; 5 days
[16] = tested on: microglia; test: inhibition of SpheresAβ1-42 binding to microglia; set-up: species or system rat; settings: 10 μmoles/l, 4 hours, 37° C.
[17] = tested on: scavenger receptor II mRNA / microglia; test: microsphere implants in brain neocortex: reactive microglia and scavenger receptor mRNA; assay type: in vivo
Source text: FIGS. 7A, B, and C show SpheresAβ1-42 in vivo. […]. […] Microglia were visualized by uptake of fluorescent labeled acetylated LDL, DiI-ac-LDL Bar=40 μm, FIG. 7A; 25 μm FIG. 7B and C.

NC(CCCP(=O)(O)O)C(=O)O (stereo not shown) [AP5]
effect on current elicited by NMDA [1]: could be blocked
protection against AMAA [2]: prevented from killing neurons
neuroprotective effects against NTox, concentration range [3]: ~100 nM
inhibition of killing action of NTox applied to neurons ([3]; isolated NTox, FIGS. 13, 32): NTox can be blocked
drug blockade of neuron killing, human microglia [4]: prevented neuron death
protection against quinolinic acid [5]: prevented from killing neurons
drug blockade of neuron killing, rat microglia [6]: prevented neuronal loss; also recorded: prevented neuron death

Aβ1-42: synthetic human β-amyloid peptide 1-42
binding of peptide-coupled microspheres to microglia [7]: marked glial binding; also recorded: readily bind; also recorded: readily engulfed by microglia
induction of neurotoxic human microglia [8]: very potent inducers of neurotoxic human microglia; also recorded: stimulated release of neurotoxin from human microglia
microglial adherence to coupled Sepharose beads [9]: anchored to beads; also recorded: provided an anchoring site for microglia
neuron killing, microglia separated from neurons (no contact) [10]: stimulated microglia to destroy neurons
neuron killing ([10]; 100 nmoles/liter, rat microglia 500 cells per mm^2): destroyed nearly all neurons
neuron loss with conditioned media from microglia [10]: Significant neuron loss occurred
neuron kill ([10]; "aged" Aβ1-42): 77.5%±2.6%
neuron kill ([10]; fresh Aβ1-42): 75.1%±5.8%
induction of neurotoxic microglia / neuron killing ([10]; listed as 1-42): induced toxic effects
killing of neurons [10]: 70-80%
microglial morphology / reactivity [11]: morphological changes with retraction of processes
neurons destroyed by Aβ-stimulated microglia [12]: about 65%
release of nitrate or nitrite, human microglia [13]: did not bring about release of nitrate or nitrites
Solubility [14]: very insoluble
local brain inflammatory response [15]: produces an inflammatory response

Aβ17-43: Aβ peptide residues 17-43 (LVFFAEDVGSNKGAIIGLMVGGVVIAT; Amyloid-beta protein 42; UniProt P05067 688-714, looked up, fragment)
induction of neurotoxic human microglia [8]: inactive
neuron loss with conditioned media from microglia [10]: undamaged
microglial morphology / reactivity [11]: does not alter microglial morphology
inhibition of SpheresAβ1-42 binding by peptides [16]: did not
blocking of Aβ1-42 induced microglial neurotoxicity by peptides ([6]; 10 μmoles/liter peptide, 1 μmole/liter Aβ1-42): did not

SpheresAβ1-42: Aβ1-42 coupled to (fluorescent) microspheres
increase in scavenger receptor mRNA vs undamaged tissue or SphereBSA ([17]; two weeks after implantation): 5 fold
reactive microglia around implanted spheres ([17]; weeks after implantation): chronically stimulate the presence of reactive cells
binding of peptide-coupled microspheres to microglia [7]: rapidly engulfed by cultured microglia
binding of peptide-coupled microspheres to microglia ([7]; listed as Aβ1-42-spheres): localized specifically within DiI-ac-LDL(+) microglia
binding of peptide-coupled microspheres to microglia ([7]; listed as Aβ1-42 coupled-microspheres): readily taken up by microglia
induction of neurotoxic microglia / neuron killing [10]: induced neuron killing
killing of neurons [10]: 70-80%
